In ChEMBL document CHEMBL3817808, “Enlarging the chemical space of anti-leishmanials: a structureactivity relationship study of peptoids against Leishmania mexicana, a causative agent of cutaneous leishmaniasis” (Medchemcomm, 2016):
Non-standard residues stand in square brackets, D forms with d. Residues, ends and D or L forms follow the SMILES beside them. Gly(N-2-aminoethyl) = NCCNCC(=O)O; Nspe = C[C@H](NCC(=O)O)c1ccccc1; Nphe = O=C(O)CNCc1ccccc1; Nleu = CC(C)CNCC(=O)O; NPrGly = CCCNCC(=O)O; Nlys = NCCCCNCC(=O)O

Key:
Leishmania mexicana [1] = experiment: Antileishmanial activity against axenic amastigote form of Leishmania mexicana MNYC/BZ/62/M379 assessed as parasite viability measured after 1 hr by alamarBlue staining based fluorescence analysis; type: functional; settings: MNYC/BZ/62/M379, 1 h, read-out: ED50 (the source's name)
[2] = Cytotoxicity against mouse RAW264.7 cells measured after 24 hrs by alamarBlue staining based fluorescence analysis; type: cell-based; settings: read-out: ED50
Leishmania mexicana [3] = experiment: Antileishmanial activity against Leishmania mexicana MNYC/BZ/62/M379 promastigotes assessed as parasite viability measured after 1 hr by alamarBlue staining based fluorescence analysis; type: functional; settings: MNYC/BZ/62/M379, 1 h, read-out: ED50 (the source's name)
Leishmania mexicana [4] = experiment: Antileishmanial activity against Leishmania mexicana MNYC/BZ/62/M379 amastigotes infected in mouse RAW264.7 cells assessed as parasite viability measured after 24 hrs by alamarBlue staining based fluorescence analysis; type: functional

Row | SMILES | EC50 (Leishmania mexicana [1]) | CC50 at 24 h [2] | EC50 (Leishmania mexicana [3]) | ED50 (Leishmania mexicana [4])
1 | NCCNCC(=O)N(CC(=O)N(CC(=O)N(CCN)CC(=O)N(CC(=O)N(CC(=O)N(CCN)CC(=O)N(CC(=O)N(CC(=O)N(CCN)CC(=O)N(CC(=O)N(CC(N)=O)Cc1ccccc1)Cc1ccccc1)Cc1ccccc1)Cc1ccccc1)Cc1ccccc1)Cc1ccccc1)Cc1ccccc1)Cc1ccccc1 (H-[Gly(N-2-aminoethyl)][Nphe][Nphe][Gly(N-2-aminoethyl)][Nphe][Nphe][Gly(N-2-aminoethyl)][Nphe][Nphe][Gly(N-2-aminoethyl)][Nphe][Nphe]-NH2) | > 100 µM | > 5 µM | 21 µM | >5 µM
2 | CCCN(CC(=O)N(CC(N)=O)[C@@H](C)c1ccccc1)C(=O)CN(CCCCN)C(=O)CN(C(=O)CN(CCC)C(=O)CN(CCCCN)C(=O)CN(C(=O)CN(CCC)C(=O)CNCCCCN)[C@@H](C)c1ccccc1)[C@@H](C)c1ccccc1 (H-[Nlys][NPrGly][Nspe][Nlys][NPrGly][Nspe][Nlys][NPrGly][Nspe]-NH2) | > 100 µM | – | > 100 µM | –
3 | CCCN(CC(=O)N(CC(N)=O)[C@@H](C)c1ccccc1)C(=O)CN(CCCCN)C(=O)CN(C(=O)CN(CCC)C(=O)CN(CCCCN)C(=O)CN(C(=O)CN(CCC)C(=O)CN(CCCCN)C(=O)CN(C(=O)CN(CCC)C(=O)CNCCCCN)[C@@H](C)c1ccccc1)[C@@H](C)c1ccccc1)[C@@H](C)c1ccccc1 (H-[Nlys][NPrGly][Nspe][Nlys][NPrGly][Nspe][Nlys][NPrGly][Nspe][Nlys][NPrGly][Nspe]-NH2) | > 100 µM | – | > 100 µM | –
4 | CC(C)CN(CC(=O)N(CC(N)=O)[C@@H](C)c1ccccc1)C(=O)CN(CCCCN)C(=O)CN(C(=O)CN(CC(C)C)C(=O)CNCCCCN)[C@@H](C)c1ccccc1 (H-[Nlys][Nleu][Nspe][Nlys][Nleu][Nspe]-NH2) | > 100 µM | – | > 100 µM | –
5 | CC(C)CN(CC(=O)N(CC(N)=O)[C@@H](C)c1ccccc1)C(=O)CN(CCCCN)C(=O)CN(C(=O)CN(CC(C)C)C(=O)CN(CCCCN)C(=O)CN(C(=O)CN(CC(C)C)C(=O)CNCCCCN)[C@@H](C)c1ccccc1)[C@@H](C)c1ccccc1 (H-[Nlys][Nleu][Nspe][Nlys][Nleu][Nspe][Nlys][Nleu][Nspe]-NH2) | > 100 µM | – | > 100 µM | –
6 | CC(C)CN(CC(=O)N(CC(N)=O)[C@@H](C)c1ccccc1)C(=O)CN(CCCCN)C(=O)CN(C(=O)CN(CC(C)C)C(=O)CN(CCCCN)C(=O)CN(C(=O)CN(CC(C)C)C(=O)CN(CCCCN)C(=O)CN(C(=O)CN(CC(C)C)C(=O)CNCCCCN)[C@@H](C)c1ccccc1)[C@@H](C)c1ccccc1)[C@@H](C)c1ccccc1 (H-[Nlys][Nleu][Nspe][Nlys][Nleu][Nspe][Nlys][Nleu][Nspe][Nlys][Nleu][Nspe]-NH2) | > 100 µM | – | > 100 µM | –
7 | NCCCCNCC(=O)N(CC(=O)N(CC(=O)N(CCCCN)CC(=O)N(CC(=O)N(CC(N)=O)Cc1ccccc1)Cc1ccccc1)Cc1ccccc1)Cc1ccccc1 (H-[Nlys][Nphe][Nphe][Nlys][Nphe][Nphe]-NH2) | > 100 µM | – | > 100 µM | –
8 | NCCCCNCC(=O)N(CC(=O)N(CC(=O)N(CCCCN)CC(=O)N(CC(=O)N(CC(=O)N(CCCCN)CC(=O)N(CC(=O)N(CC(=O)N(CCCCN)CC(=O)N(CC(=O)N(CC(N)=O)Cc1ccccc1)Cc1ccccc1)Cc1ccccc1)Cc1ccccc1)Cc1ccccc1)Cc1ccccc1)Cc1ccccc1)Cc1ccccc1 (H-[Nlys][Nphe][Nphe][Nlys][Nphe][Nphe][Nlys][Nphe][Nphe][Nlys][Nphe][Nphe]-NH2) | > 100 µM | – | 15 µM | –
9 | C[C@@H](c1ccccc1)N(CC(N)=O)C(=O)CN(C(=O)CN(CCCCN)C(=O)CN(C(=O)CN(C(=O)CNCCCCN)[C@@H](C)c1ccccc1)[C@@H](C)c1ccccc1)[C@@H](C)c1ccccc1 (H-[Nlys][Nspe][Nspe][Nlys][Nspe][Nspe]-NH2) | > 100 µM | – | > 100 µM | –
10 | C[C@@H](c1ccccc1)N(CC(N)=O)C(=O)CN(C(=O)CN(CCCCN)C(=O)CN(C(=O)CN(C(=O)CN(CCCCN)C(=O)CN(C(=O)CN(C(=O)CN(CCCCN)C(=O)CN(C(=O)CN(C(=O)CNCCCCN)[C@@H](C)c1ccccc1)[C@@H](C)c1ccccc1)[C@@H](C)c1ccccc1)[C@@H](C)c1ccccc1)[C@@H](C)c1ccccc1)[C@@H](C)c1ccccc1)[C@@H](C)c1ccccc1 (H-[Nlys][Nspe][Nspe][Nlys][Nspe][Nspe][Nlys][Nspe][Nspe][Nlys][Nspe][Nspe]-NH2) | > 100 µM | – | 8 µM | –
11 | CC(c1ccccc1)N(CC(=O)N(CCCCN)CC(=O)N(CC(=O)N(CC(=O)N(CCCCN)CC(=O)N(CC(=O)N(CC(N)=O)[C@@H](C)c1ccccc1)Cc1ccc(F)cc1)C(C)c1ccccc1)Cc1ccc(F)cc1)C(=O)CN(Cc1ccc(F)cc1)C(=O)CNCCCCN (single isomer, unassigned) | > 100 µM | – | 13 µM | –
12 | CC(C)CCN(CC(=O)N(CC(=O)N(CCCCN)CC(=O)N(CCC(C)C)CC(=O)N(CC(=O)N(CCCCN)CC(=O)N(CCC(C)C)CC(=O)N(CC(=O)N(CCCCN)CC(=O)N(CCC(C)C)CC(=O)N(CC(N)=O)[C@@H](C)c1ccccc1)C(C)c1ccccc1)C(C)c1ccccc1)C(C)c1ccccc1)C(=O)CNCCCCN (single isomer, unassigned) | > 100 µM | – | 12 µM | –
13 | CC(c1ccccc1)N(CC(=O)N(CCCCN)CC(=O)N(CC(=O)N(CC(=O)N(CCCCN)CC(=O)N(CC(=O)N(CC(N)=O)[C@@H](C)c1ccccc1)[C@@H](C)c1ccccc1)Cc1ccc(F)cc1)Cc1ccc(F)cc1)C(=O)CN(C(=O)CN(CCCCN)C(=O)CN(Cc1ccc(F)cc1)C(=O)CN(Cc1ccc(F)cc1)C(=O)CNCCCCN)[C@@H](C)c1ccccc1 (single isomer, unassigned) | 21 µM | 5 µM | 6 µM | >5 µM
14 | CC(C)CCN(CC(=O)N(CC(N)=O)C(C)c1ccccc1)C(=O)CN(CCCCN)C(=O)CN(C(=O)CN(CCC(C)C)C(=O)CN(CCCCN)C(=O)CN(C(=O)CN(CCC(C)C)C(=O)CNCCCCN)[C@@H](C)c1ccccc1)[C@@H](C)c1ccccc1 (single isomer, unassigned) | > 100 µM | – | 52 µM | –
15 | CCCCCN(CC(=O)N(CC(=O)N(CC(=O)N(CCCCN)CC(=O)N(CC(=O)N(CC(N)=O)[C@@H](C)c1ccccc1)[C@@H](C)c1ccccc1)C(C)c1ccccc1)[C@@H](C)c1ccccc1)C(=O)CN(C(=O)CN(C(=O)CN(CCCCN)C(=O)CN(C(=O)CN(C(=O)CNCCCCN)[C@@H](C)c1ccccc1)C(C)c1ccccc1)[C@@H](C)c1ccccc1)C(C)c1ccccc1 (single isomer, unassigned) | 15 µM | – | 10 µM | –
16 | CC(c1ccccc1)N(CC(=O)N(CCCCN)CC(=O)N(CC(=O)N(CC(=O)N(CCCCN)CC(=O)N(CC(=O)N(CC(=O)N(CCCCN)CC(=O)N(CC(=O)N(CC(N)=O)[C@@H](C)c1ccccc1)Cc1ccc(F)cc1)C(C)c1ccccc1)Cc1ccc(F)cc1)C(C)c1ccccc1)Cc1ccc(F)cc1)C(=O)CN(Cc1ccc(F)cc1)C(=O)CNCCCCN (single isomer, unassigned) | 27 µM | – | 8 µM | –
17 | CCCCCNCC(=O)N(CC(=O)N(CC(=O)N(CCCCN)CC(=O)N(CC(=O)N(CC(=O)N(CCCCC)CC(=O)N(CC(=O)N(CC(=O)N(CCCCN)CC(=O)N(CC(=O)N(CC(N)=O)[C@@H](C)c1ccccc1)[C@@H](C)c1ccccc1)C(C)c1ccccc1)[C@@H](C)c1ccccc1)C(C)c1ccccc1)[C@@H](C)c1ccccc1)C(C)c1ccccc1)[C@@H](C)c1ccccc1 (single isomer, unassigned) | 17 µM | – | 10 µM | –
18 | CC(c1ccccc1)N(CC(=O)N(CCN)CC(=O)N(CC(=O)N(CC(=O)N(CCN)CC(=O)N(CC(=O)N(CC(N)=O)[C@@H](C)c1ccccc1)[C@@H](C)c1ccccc1)C(C)c1ccccc1)[C@@H](C)c1ccccc1)C(=O)CN(C(=O)CNCCN)C(C)c1ccccc1 (single isomer, unassigned) | > 100 µM | – | 10 µM | –
19 | CC(c1ccccc1)N(CC(=O)N(CCCCN)CC(=O)N(CC(=O)N(CC(=O)N(CCCCN)CC(=O)N(CC(=O)N(CC(N)=O)[C@@H](C)c1ccccc1)[C@@H](C)c1ccccc1)Cc1ccc(F)cc1)Cc1ccc(F)cc1)C(=O)CN(C(=O)CNCCCCN)[C@@H](C)c1ccccc1 (single isomer, unassigned) | > 100 µM | – | 13 µM | –
20 | CCCCCNCC(=O)N(CC(=O)N(CC(=O)N(CCCCN)CC(=O)N(CC(=O)N(CC(=O)N(CCCCN)CC(=O)N(CC(=O)N(CC(=O)N(CCCCN)CC(=O)N(CC(=O)N(CC(N)=O)[C@@H](C)c1ccccc1)[C@@H](C)c1ccccc1)C(C)c1ccccc1)[C@@H](C)c1ccccc1)[C@@H](C)c1ccccc1)[C@@H](C)c1ccccc1)C(C)c1ccccc1)[C@@H](C)c1ccccc1 (single isomer, unassigned) | 21 µM | – | 8 µM | –
21 | CCCCCNCC(=O)N(CC(=O)N(CC(=O)N(CCCCC)CC(=O)N(CC(=O)N(CC(=O)N(CCCCN)CC(=O)N(CC(=O)N(CC(=O)N(CCCCN)CC(=O)N(CC(=O)N(CC(N)=O)[C@@H](C)c1ccccc1)[C@@H](C)c1ccccc1)C(C)c1ccccc1)[C@@H](C)c1ccccc1)C(C)c1ccccc1)[C@@H](C)c1ccccc1)C(C)c1ccccc1)[C@@H](C)c1ccccc1 (single isomer, unassigned) | 16 µM | 1.7 µM | 11 µM | 1.6 µM
22 | C[C@H](c1ccccc1)N(CC(N)=O)C(=O)CN(C(=O)CN(CCCCN)C(=O)CN(C(=O)CN(C(=O)CN(CCCCN)C(=O)CN(C(=O)CN(C(=O)CNCCCCN)[C@H](C)c1ccccc1)[C@@H](C)c1ccccc1)[C@H](C)c1ccccc1)[C@@H](C)c1ccccc1)[C@H](C)c1ccccc1 (stereo in doubt) | > 100 µM | – | 15 µM | –
23 | C[C@H](c1ccccc1)N(CC(=O)N(CCN)CC(=O)N(CC(=O)N(CC(=O)N(CCN)CC(=O)N(CC(=O)N(CC(=O)N(CCN)CC(=O)N(CC(=O)N(CC(N)=O)[C@@H](C)c1ccccc1)[C@@H](C)c1ccccc1)[C@H](C)c1ccccc1)[C@@H](C)c1ccccc1)[C@H](C)c1ccccc1)[C@@H](C)c1ccccc1)C(=O)CN(C(=O)CNCCN)[C@H](C)c1ccccc1 (stereo in doubt) | 17 µM | 3 µM | 7 µM | >5 µM
